Data taken from publication doi:10.1101/2021.11.14.468520v1, “Exploring the kinetic selectivity of antipsychotics for dopamine D2 and 5-HT2A receptors: implications for the prevalence of EPS and receptor occupancy” (biorxiv, 2021).

How the values were obtained:
[1] = target: T1, human 5-HT2A receptor (5-HT2AR) (Homo sapiens, UniProt P28223); test: TR-FRET saturation binding; details: labelled compound; CHO membranes; […] GppNHp, pH […]; equilibrium, […] min
T1 construct: gene HTR2A; SNAP-tagged (SNAP-Lumi4-Tb labelled) receptor transiently expressed in CHO-K1 cells; membranes; plasmid from CisBio

[2] = target: T1, human 5-HT2A receptor (5-HT2AR); test: biochemical; design: species or system CHO; details: read-out: koff (min^-1)
[3] = target: T1, human 5-HT2A receptor (5-HT2AR); test: TR-FRET equilibrium competition binding
Source text: TR-FRET equilibrium competition binding on human 5-HT2A receptor (5-HT2AR)

T1 sequence (P28223 whole entry): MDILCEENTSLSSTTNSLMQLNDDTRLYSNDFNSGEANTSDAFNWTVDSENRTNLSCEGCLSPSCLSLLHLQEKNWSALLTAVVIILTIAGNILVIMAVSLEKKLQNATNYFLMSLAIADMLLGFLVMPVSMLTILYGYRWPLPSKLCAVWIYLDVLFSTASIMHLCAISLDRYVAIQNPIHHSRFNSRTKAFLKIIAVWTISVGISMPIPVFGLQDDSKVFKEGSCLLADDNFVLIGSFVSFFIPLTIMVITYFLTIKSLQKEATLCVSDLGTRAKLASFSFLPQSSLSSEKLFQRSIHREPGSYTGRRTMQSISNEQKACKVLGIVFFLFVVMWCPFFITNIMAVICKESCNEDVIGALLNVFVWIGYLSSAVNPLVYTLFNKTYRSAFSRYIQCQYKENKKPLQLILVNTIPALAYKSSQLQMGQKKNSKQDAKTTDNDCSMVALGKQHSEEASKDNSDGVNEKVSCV

| Molecule | Kd [1] [nM] | koff [2] [min⁻¹] | Ki [3] [nM] |
| --- | --- | --- | --- |
| 4F4PP oxalate-red | 3.98 ± 0.65 | – | – |
| CN1CC2c3ccccc3Oc3ccc(Cl)cc3C2C1 (centres unmarked) [Asenapine] | – | 0.7 | 0.661 |
| Cc1nc2n(c(=O)c1CCN1CCC(c3noc4cc(F)ccc34)CC1)CCCC2O (centres unmarked) [Paliperidone] | – | 0.23 | 1.02 |
